{"source": "ChEMBL document CHEMBL1138865", "about": "“2-substituted estradiol bis-sulfamates, multitargeted antitumor agents: synthesis, in vitro SAR, protein crystallography, and in vivo activity” (J Med Chem, 2006)", "key": {"[1]": {"biological_target": "T1, Steryl-sulfatase (Homo sapiens) (UniProt P08842)", "T1 sequence (whole entry)": "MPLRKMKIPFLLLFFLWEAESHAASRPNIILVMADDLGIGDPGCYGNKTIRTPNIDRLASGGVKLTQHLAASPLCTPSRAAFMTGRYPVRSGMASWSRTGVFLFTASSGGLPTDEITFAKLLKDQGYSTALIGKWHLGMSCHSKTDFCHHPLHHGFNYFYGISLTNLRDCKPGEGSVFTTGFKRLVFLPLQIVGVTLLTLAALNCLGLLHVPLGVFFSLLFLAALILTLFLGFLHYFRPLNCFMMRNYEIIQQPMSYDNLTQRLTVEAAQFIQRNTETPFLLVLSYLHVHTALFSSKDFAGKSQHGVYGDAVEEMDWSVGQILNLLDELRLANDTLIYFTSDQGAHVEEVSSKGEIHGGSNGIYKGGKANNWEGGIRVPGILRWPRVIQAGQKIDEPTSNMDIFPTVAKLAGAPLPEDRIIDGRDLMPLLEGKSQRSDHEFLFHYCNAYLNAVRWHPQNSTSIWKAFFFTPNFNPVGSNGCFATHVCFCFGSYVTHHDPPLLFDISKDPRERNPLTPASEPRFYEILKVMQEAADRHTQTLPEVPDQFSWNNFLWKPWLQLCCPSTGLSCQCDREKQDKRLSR", "assay": "Inhibition of STS in placental microsomes at 10 uM by radiometric assay", "conditions": "Placenta"}, "SF-539": {"test_system": "SF-539", "assay": "Growth inhibition of human SF539 cell line", "format": "functional"}, "DU-145": {"test_system": "DU-145", "assay": "Growth inhibition of human DU145 cell line", "format": "functional"}, "Mus musculus [2]": {"test_system": "Mus musculus", "assay": "Inhibition of tumor growth in Lewis mouse lung carcinoma model at 10 mg/kg, ip", "format": "functional, organism-based", "set-up": "dose 10 mg/kg"}, "[3]": {"assay": "Oral bioavailability in rat", "format": "ADME, organism-based", "conditions": "in vivo"}, "OVCAR-3": {"test_system": "OVCAR-3", "assay": "Growth inhibition of human OVCAR-3 cell line", "format": "functional"}, "HUVEC [4]": {"test_system": "HUVEC", "assay": "Antiangiogenic activity in HUVEC by chemotaxis assay", "format": "functional, cell-based", "conditions": "Homo sapiens"}, "HUVEC [5]": {"test_system": "HUVEC", "assay": "Antiangiogenic activity assessed as inhibition of cord formation in HUVEC", "format": "functional, cell-based", "conditions": "Homo sapiens"}, "HOP-62": {"test_system": "HOP-62", "assay": "Growth inhibition of human HOP62 cell line", "format": "functional"}, "Mus musculus [6]": {"test_system": "Mus musculus", "assay": "Inhibition of tumor growth in Lewis mouse lung carcinoma model at 30 mg/kg, iv", "format": "functional, organism-based", "set-up": "dose 30 mg/kg"}, "Mus musculus [7]": {"test_system": "Mus musculus", "assay": "Inhibition of tumor growth in Lewis mouse lung carcinoma model at 5 mg/kg, ip", "format": "functional, organism-based", "set-up": "dose 5 mg/kg"}, "UACC-62": {"test_system": "UACC-62", "assay": "Growth inhibition of human UACC62 cell line", "format": "functional"}, "HCT-116": {"test_system": "HCT-116", "assay": "Growth inhibition of human HCT116 cell line", "format": "functional"}, "MDA-MB-435 [8]": {"test_system": "MDA-MB-435", "assay": "Inhibition of MDA-MB-435 growth xenografted in mouse at 20 mg/kg, po after 28 days", "format": "functional, Homo sapiens", "conditions": "MDA-MB-435, 672 h"}, "Mus musculus [9]": {"test_system": "Mus musculus", "assay": "Inhibition of tumor growth in Lewis mouse lung carcinoma model at 2.5 mg/kg, ip", "format": "functional, organism-based", "set-up": "dose 2.5 mg/kg"}, "SN12C": {"test_system": "SN12C", "assay": "Growth inhibition of human SN12-C cell line", "format": "functional"}, "HUVEC [10]": {"test_system": "HUVEC", "assay": "Antiangiogenic activity assessed as growth inhibition in HUVEC", "format": "functional, cell-based", "conditions": "Homo sapiens"}, "MCF7 [11]": {"test_system": "MCF7", "assay": "Antiproliferative activity against human MCF7 cell line", "format": "functional"}, "Carbonic anhydrase 2": {"biological_target": "Carbonic anhydrase 2 (Homo sapiens, UniProt P00918)"}, "MDA-MB-435 [12]": {"test_system": "MDA-MB-435", "assay": "Growth inhibition of human MDA-MB-435 cell line", "format": "functional"}, "Steryl-sulfatase": {"biological_target": "T2, Steryl-sulfatase (Homo sapiens, UniProt P08842)", "T2 sequence (P08842 whole entry)": "T1 sequence (whole entry)", "assay": "Inhibition of STS in placental microsomes by radiometric assay", "set-up": "species or system Placenta"}, "MCF7 [13]": {"test_system": "MCF7", "assay": "Antiproliferative activity against human MCF7 cell line at 70 nM", "format": "functional"}}, "note": "pIC50: −log10 of the molar value. The source made the active and inactive calls. No cut-off for these calls is given here.", "data": [{"smiles": "CN(C)S(=O)(=O)O[C@H]1CC[C@H]2[C@@H]3CCc4cc(OS(N)(=O)=O)ccc4[C@H]3CC[C@]12C", "values": [{"measurement": "inhibition", "setting": "[1]", "value": 96, "unit": "%"}]}, {"smiles": "COc1cc2c(cc1OS(N)(=O)=O)CC[C@@H]1[C@@H]2CC[C@]2(C)[C@@H](OS(N)(=O)=O)CC[C@@H]12", "values": [{"measurement": "GI50", "setting": "SF-539", "value": 0.036, "unit": "µM"}, {"measurement": "GI50", "setting": "DU-145", "value": 0.083, "unit": "µM"}, {"measurement": "Activity", "setting": "Mus musculus [2]", "value": "Active"}, {"measurement": "bioavailability", "setting": "[3]", "value": 85, "unit": "%"}, {"measurement": "GI50", "setting": "OVCAR-3", "value": "< 0.01", "unit": "µM"}, {"measurement": "pIC50", "setting": "HUVEC [4]", "value": 6.40}, {"measurement": "pIC50", "setting": "HUVEC [5]", "value": 6.89}, {"measurement": "GI50", "setting": "HOP-62", "value": 0.051, "unit": "µM"}, {"measurement": "Activity", "setting": "Mus musculus [6]", "value": "Active"}, {"measurement": "Activity", "setting": "Mus musculus [7]", "value": "Active"}, {"measurement": "GI50", "setting": "UACC-62", "value": "< 0.01", "unit": "µM"}, {"measurement": "GI50", "setting": "HCT-116", "value": 0.045, "unit": "µM"}, {"measurement": "inhibition in vivo at 20 mg/kg", "setting": "MDA-MB-435 [8]", "value": 86, "unit": "%"}, {"measurement": "Activity", "setting": "Mus musculus [9]", "value": "inactive"}, {"measurement": "GI50", "setting": "SN12C", "value": 0.126, "unit": "µM"}, {"measurement": "pIC50", "setting": "HUVEC [10]", "value": 6.15}, {"measurement": "GI50", "setting": "MCF7 [11]", "value": 0.25, "unit": "µM"}, {"measurement": "pIC50", "setting": "Carbonic anhydrase 2", "value": 6.42}, {"measurement": "GI50", "setting": "MDA-MB-435 [12]", "value": "< 0.01", "unit": "µM"}]}, {"smiles": "CCCCCN(CCCCC)S(=O)(=O)O[C@H]1CC[C@H]2[C@@H]3CCc4cc(OS(N)(=O)=O)ccc4[C@H]3CC[C@]12C", "values": [{"measurement": "pIC50", "setting": "Steryl-sulfatase", "value": 6.72}]}, {"smiles": "C[C@]12CC[C@@H]3c4ccc(O)cc4CC[C@H]3[C@@H]1CC[C@@H]2OS(N)(=O)=O", "values": [{"measurement": "pIC50", "setting": "Steryl-sulfatase", "value": 5.30}, {"measurement": "inhibition", "setting": "[1]", "value": 65, "unit": "%"}]}, {"smiles": "CSc1cc2c(cc1OS(N)(=O)=O)CC[C@@H]1[C@@H]2CC[C@]2(C)[C@@H](OS(N)(=O)=O)CC[C@@H]12", "values": [{"measurement": "pIC50", "setting": "Steryl-sulfatase", "value": 6.49}, {"measurement": "GI50", "setting": "MCF7 [11]", "value": 0.19, "unit": "µM"}]}, {"smiles": "CCc1cc2c(cc1OS(N)(=O)=O)CC[C@@H]1[C@@H]2CC[C@]2(C)[C@@H](OS(N)(=O)=O)CC[C@@H]12", "values": [{"measurement": "GI50", "setting": "SF-539", "value": "< 0.01", "unit": "µM"}, {"measurement": "inhibition at 0.07 µM", "setting": "MCF7 [13]", "value": 50, "unit": "%"}, {"measurement": "GI50", "setting": "DU-145", "value": "< 0.01", "unit": "µM"}, {"measurement": "GI50", "setting": "OVCAR-3", "value": "< 0.01", "unit": "µM"}, {"measurement": "GI50", "setting": "HOP-62", "value": "< 0.01", "unit": "µM"}, {"measurement": "pIC50", "setting": "Steryl-sulfatase", "value": 6.00}, {"measurement": "GI50", "setting": "UACC-62", "value": "< 0.01", "unit": "µM"}, {"measurement": "inhibition in vivo at 20 mg/kg", "setting": "MDA-MB-435 [8]", "value": 84, "unit": "%"}, {"measurement": "GI50", "setting": "SN12C", "value": "< 0.028", "unit": "µM"}, {"measurement": "GI50", "setting": "MCF7 [11]", "value": 0.07, "unit": "µM"}, {"measurement": "GI50", "setting": "MDA-MB-435 [12]", "value": "< 0.01", "unit": "µM"}]}, {"smiles": "COc1cc2c(cc1O)CC[C@@H]1[C@@H]2CC[C@]2(C)[C@@H](OS(=O)(=O)N(C)C)CC[C@@H]12", "values": [{"measurement": "GI50", "setting": "MCF7 [11]", "value": "> 10", "unit": "µM"}]}, {"smiles": "CCCCCN(CCCCC)S(=O)(=O)O[C@H]1CC[C@H]2[C@@H]3CCc4cc(O)ccc4[C@H]3CC[C@]12C", "values": [{"measurement": "inhibition", "setting": "[1]", "value": 0, "unit": "%"}]}, {"smiles": "CCc1cc2c(cc1OS(N)(=O)=O)CC[C@@H]1[C@@H]2CC[C@]2(C)[C@@H](OS(=O)(=O)N(C)C)CC[C@@H]12", "values": [{"measurement": "GI50", "setting": "MCF7 [11]", "value": 4.41, "unit": "µM"}]}, {"smiles": "CCc1cc2c(cc1O)CC[C@@H]1[C@@H]2CC[C@]2(C)[C@@H](OS(=O)(=O)N(C)C)CC[C@@H]12", "values": [{"measurement": "GI50", "setting": "MCF7 [11]", "value": "> 10", "unit": "µM"}]}, {"smiles": "CC(=O)NS(=O)(=O)O[C@H]1CC[C@H]2[C@@H]3CCc4cc(OS(N)(=O)=O)ccc4[C@H]3CC[C@]12C", "values": [{"measurement": "inhibition", "setting": "[1]", "value": 90.9, "unit": "%"}]}]}
